Data on 25 compounds can be found in patent US10800792B2, “Inhibitors of Bruton's tyrosine kinase and method of their use” (JANSSEN PHARMACEUTICA NV, priority 2015, dated 2020).

The assay concerns the target unphosphorylated-BTK kinase domain (UP-BTK), GST-tagged human BTK (389-659aa) (Homo sapiens (Human), UniProt Q06187). The assay is described as follows: BTK kinase Lanthascreen binding assay. The following applies: pIC50 = negative log of the IC50 in molar, 60 minutes incubation, 50 nM Tracer 236; for IC50: read-out: BTK_I_binding pIC50 (converted). The essentials:
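Measures how well compounds compete with a fluorescence-labelled tracer for binding to BTK in its unphosphorylated state. IC50 values were fitted and expressed as pIC50 (negative logarithm of the molar IC50).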
(TR-FRET usually uses a lanthanide donor and a delayed reading to cut background.)

unphosphorylated-BTK kinase domain (UP-BTK), GST-tagged human BTK (389-659aa), sequence (Q06187 389-659): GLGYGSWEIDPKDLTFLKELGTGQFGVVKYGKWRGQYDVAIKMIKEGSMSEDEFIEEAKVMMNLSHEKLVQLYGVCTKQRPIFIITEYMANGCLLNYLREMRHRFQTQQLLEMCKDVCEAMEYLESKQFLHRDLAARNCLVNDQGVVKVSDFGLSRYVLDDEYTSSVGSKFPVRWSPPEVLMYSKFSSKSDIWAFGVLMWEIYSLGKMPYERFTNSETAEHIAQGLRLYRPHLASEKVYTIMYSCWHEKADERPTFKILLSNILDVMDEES

In the case of `N#C/C(=C\C1CC1)C(=O)N1CCC[C@@H](NC(=O)c2sc3nccc4c3c2NC(=O)N4c2ccc(Oc3ccccc3)cc2F)C1` [Example 79, (R,E)-N-(1-(2-Cyano-3-cyclopropylacryloyl)piperidin-3-yl)-5-(2-fluoro-4-phenoxyphenyl)-4-oxo-4,5-dihydro-3H-1-thia-3,5,8-triazaacenaphthylene-2-carboxamide], the “BTK_I_binding pIC50” value amounted to 7.5.
On the same count and under the same terms, in the case of `C=CC(=O)N1CC[C@@H](NC(=O)c2sc3nccc4c3c2NC(=O)N4c2c(C)cc(Oc3ccccc3)cc2C)C1` [Example 81, (R)—N-(1-Acryloylpyrrolidin-3-yl)-5-(2,6-dimethyl-4-phenoxyphenyl)-4-oxo-4,5-dihydro-3H-1-thia-3,5,8-triazaacenaphthylene-2-carboxamide] it was 6.6; in that of `C=CC(=O)N1CCC[C@@H](NC(=O)c2sc3nccc4c3c2NC(=O)N4c2ccc(S(F)(F)(F)(F)F)cc2C)C1` [Example 83, (R)—N-(1-Acryloylpiperidin-3-yl)-5-(2-methyl-4-(pentafluorothio)phenyl)-4-oxo-4,5-dihydro-3H-1-thia-3,5,8-triazaacenaphthylene-2-carboxamide], 6.8.
The same measure, in the same setting: under `C=CC(=O)N1CCC[C@@H](NC(=O)c2sc3nccc4c3c2NC(=O)N4c2ccc(C)cc2C)C1` [Example 86, (R)—N-(1-Acryloylpiperidin-3-yl)-5-(2,4-dimethylphenyl)-4-oxo-4,5-dihydro-3H-1-thia-3,5,8-triazaacenaphthylene-2-carboxamide] stands 6.7.
On the same count and under the same terms, in the case of `COCCC(=O)N1CCC[C@@H](NC(=O)c2sc3nccc4c3c2NC(=O)N4c2ccc(Oc3ccccc3)c(F)c2C)C1` [Example 89, (R)-5-(3-Fluoro-2-methyl-4-phenoxyphenyl)-N-(1-(3-methoxypropanoyl)piperidin-3-yl)-4-oxo-4,5-dihydro-3H-1-thia-3,5,8-triazaacenaphthylene-2-carboxamide] it was 7.1; in that of `Cc1cc(Oc2ccccc2)ccc1N1C(=O)Nc2c(C(=O)N[C@H]3CCOC3)sc3nccc1c23` [Example 90, (S)-5-(2-Methyl-4-phenoxyphenyl)-4-oxo-N-(tetrahydrofuran-3-yl)-4,5-dihydro-3H-1-thia-3,5,8-triazaacenaphthylene-2-carboxamide], 7.5; in that of `CNCC(=O)N1CCC[C@@H](NC(=O)c2sc3nccc4c3c2NC(=O)N4c2ccc(Oc3ccccc3)cc2C)C1` [Example 91, (R)-5-(2-Methyl-4-phenoxyphenyl)-N-(1-(2-(methylamino)acetyl)piperidin-3-yl)-4-oxo-4,5-dihydro-3H-1-thia-3,5,8-triazaacenaphthylene-2-carboxamide], 7.3.
Consider `COCCC(=O)N1C[C@@H](F)[C@@H](NC(=O)c2sc3nccc4c3c2NC(=O)N4c2ccc(Oc3ccccc3)cc2C)C1` [Example 94, N-((3S,4R)-4-Fluoro-1-(3-methoxypropanoyl)pyrrolidin-3-yl)-5-(2-methyl-4-phenoxyphenyl)-4-oxo-4,5-dihydro-3H-1-thia-3,5,8-triazaacenaphthylene-2-carboxamide], for which the “BTK_I_binding pIC50” value was 7.6.
Same read-out and setting: in the case of `COCC(=O)N1CCC[C@@H](NC(=O)c2sc3nccc4c3c2NC(=O)N4c2ccc(Oc3ccccc3)cc2C)C1` [Example 95, (R)—N-(1-(2-Methoxyacetyl)piperidin-3-yl)-5-(2-methyl-4-phenoxyphenyl)-4-oxo-4,5-dihydro-3H-1-thia-3,5,8-triazaacenaphthylene-2-carboxamide] it was 7.4; in that of `Cc1cc(Oc2ccccc2)ccc1N1C(=O)Nc2c(C(=O)NC3CCCCN(C#N)C3)sc3nccc1c23` (stereo not shown) [Example 97, N-(1-Cyanoazepan-3-yl)-5-(2-methyl-4-phenoxyphenyl)-4-oxo-4,5-dihydro-3H-1-thia-3,5,8-triazaacenaphthylene-2-carboxamide], 6.9; in that of `Cc1cc(Oc2ccccc2)ccc1N1C(=O)Nc2c(C(=O)N[C@@H]3CCCN(C(C)C)C3)sc3nccc1c23` [Example 101, (R)—N-(1-Isopropylpiperidin-3-yl)-5-(2-methyl-4-phenoxyphenyl)-4-oxo-4,5-dihydro-3H-1-thia-3,5,8-triazaacenaphthylene-2-carboxamide], 6.8.
Same read-out and setting: in the case of `Cc1cc(OC(C)C)ccc1N1C(=O)Nc2c(C(=O)N[C@@H]3CCCN(C(=O)/C(C#N)=C/C4CC4)C3)sc3nccc1c23` [Example 102, (R,E)-N-(1-(2-Cyano-3-cyclopropylacryloyl)piperidin-3-yl)-5-(4-isopropoxy-2-methylphenyl)-4-oxo-4,5-dihydro-3H-1-thia-3,5,8-triazaacenaphthylene-2-carboxamide] it was 7.5; in that of `Cc1cc(Oc2ccccc2)ccc1N1C(=O)Nc2c(C(=O)NC3CCC(C)N(C)C3)sc3nccc1c23` (stereo not shown) [Example 103, N-(1,6-Dimethylpiperidin-3-yl)-5-(2-methyl-4-phenoxyphenyl)-4-oxo-4,5-dihydro-3H-1-thia-3,5,8-triazaacenaphthylene-2-carboxamide], 6.7.
Still for that read-out and setting: in the case of `Cc1cc(Oc2ccccc2)ccc1N1C(=O)Nc2c(C(=O)N[C@@H]3CCN(C(=O)CCS(C)(=O)=O)C3)sc3nccc1c23` [Example 104, (R)-5-(2-Methyl-4-phenoxyphenyl)-N-(1-(3-(methylsulfonyl)propanoyl)pyrrolidin-3-yl)-4-oxo-4,5-dihydro-3H-1-thia-3,5,8-triazaacenaphthylene-2-carboxamide] it was 7.7.
In the case of `C/C=C/C(=O)N1CCC[C@@H](NC(=O)c2sc3nccc4c3c2NC(=O)N4c2ccc(Oc3ccccc3)cc2C)C1` [Example 105, (R,E)-N-(1-(But-2-enoyl)piperidin-3-yl)-5-(2-methyl-4-phenoxyphenyl)-4-oxo-4,5-dihydro-3H-1-thia-3,5,8-triazaacenaphthylene-2-carboxamide], the “BTK_I_binding pIC50” value was 6.9.
On the same count and under the same terms, in the case of `CNCCC(=O)N1CCC[C@@H](NC(=O)c2sc3nccc4c3c2NC(=O)N4c2ccc(Oc3ccccc3)cc2C)C1` [Example 106, (R)-5-(2-Methyl-4-phenoxyphenyl)-N-(1-(3-(methylamino)propanoyl)piperidin-3-yl)-4-oxo-4,5-dihydro-3H-1-thia-3,5,8-triazaacenaphthylene-2-carboxamide] it was 7.3; in that of `O=C(N[C@@H]1CCCNC1)c1sc2nccc3c2c1NC(=O)N3c1ccc(Oc2ccccc2)cc1F` [Example 107, (R)-5-(2-Fluoro-4-phenoxyphenyl)-4-oxo-N-(piperidin-3-yl)-4,5-dihydro-3H-1-thia-3,5,8-triazaacenaphthylene-2-carboxamide], 7.5.
The same measure, in the same setting: in the case of `Cc1cc(Oc2ccccc2)ccc1N1C(=O)Nc2c(C(=O)N[C@@H]3CCOC3)sc3nccc1c23` [Example 108, (R)-5-(2-Methyl-4-phenoxyphenyl)-4-oxo-N-(tetrahydrofuran-3-yl)-4,5-dihydro-3H-1-thia-3,5,8-triazaacenaphthylene-2-carboxamide] it was 7.5; in that of `C=CC(=O)N1CC(NC(=O)c2sc3nccc4c3c2NC(=O)N4c2ccc(Oc3ccccc3)cc2C)C1` [Example 109, N-(1-Acryloylazetidin-3-yl)-5-(2-methyl-4-phenoxyphenyl)-4-oxo-4,5-dihydro-3H-1-thia-3,5,8-triazaacenaphthylene-2-carboxamide], 7.2.
With `COc1ccc(N2C(=O)Nc3c(C(=O)N[C@@H]4CCCN(C(=O)C=[13CH2])C4)sc4nccc2c34)c(C)c1` [Example 110, (R)—N-(1-^13C-Acryloylpiperidin-3-yl)-5-(4-methoxy-2-methylphenyl)-4-oxo-4,5-dihydro-3H-1-thia-3,5,8-triazaacenaphthylene-2-carboxamide], the IC50 is 158 nM.
On the same count and under the same terms, in the case of `COC[C@@H](N)C(=O)N1CCC[C@@H](NC(=O)c2sc3nccc4c3c2NC(=O)N4c2ccc(Oc3ccccc3)cc2C)C1` [Example 111, N—((R)-1-((R)-2-Amino-3-methoxypropanoyl)piperidin-3-yl)-5-(2-methyl-4-phenoxyphenyl)-4-oxo-4,5-dihydro-3H-1-thia-3,5,8-triazaacenaphthylene-2-carboxamide] it was 63.1 nM.
For the compound `Cc1c(N2C(=O)Nc3c(C(=O)N[C@@H]4CCCN(C(=O)CCS(C)(=O)=O)C4)sc4nccc2c34)ccc(Oc2ccccc2)c1F` [Example 113, (R)-5-(3-Fluoro-2-methyl-4-phenoxyphenyl)-N-(1-(3-(methylsulfonyl)propanoyl)piperidin-3-yl)-4-oxo-4,5-dihydro-3H-1-thia-3,5,8-triazaacenaphthylene-2-carboxamide], the “BTK_I_binding pIC50” value came out at 7.3.
The same measure, in the same setting: under `Cc1c(N2C(=O)Nc3c(C(=O)N[C@@H]4CCCN(C(=O)CO)C4)sc4nccc2c34)ccc(Oc2ccccc2)c1F` [Example 114, (R)-5-(3-Fluoro-2-methyl-4-phenoxyphenyl)-N-(1-(2-hydroxyacetyl)piperidin-3-yl)-4-oxo-4,5-dihydro-3H-1-thia-3,5,8-triazaacenaphthylene-2-carboxamide] stands 7.3; under `COCC(=O)N1CCC[C@@H](NC(=O)c2sc3nccc4c3c2NC(=O)N4c2ccc(Oc3ccccc3)c(F)c2C)C1` [Example 115, (R)-5-(3-Fluoro-2-methyl-4-phenoxyphenyl)-N-(1-(2-methoxyacetyl)piperidin-3-yl)-4-oxo-4,5-dihydro-3H-1-thia-3,5,8-triazaacenaphthylene-2-carboxamide], 7.4; under `C/C=C\C(=O)N1CCC[C@@H](NC(=O)c2sc3nccc4c3c2NC(=O)N4c2ccc(Oc3ccccc3)cc2C)C1` [Example 116, (R,Z)—N-(1-(But-2-enoyl)piperidin-3-yl)-5-(2-methyl-4-phenoxyphenyl)-4-oxo-4,5-dihydro-3H-1-thia-3,5,8-triazaacenaphthylene-2-carboxamide], 7.2.
